Laboratory results as given in patent publication US12685320B2, “Food processing oxidation treatment forumlations and methods” (Clean Chemistry, Inc., priority 2023, dated 2026).

How the values were obtained:
Salmonella spp. = assay: Poultry chiller tank (pre-chiller and red water main chiller): Salmonella on inoculated poultry thighs; format: cell-based, S. Infantis, S. Typhimurium, S. Enteritidis; conditions: for Recovered average Log10 CFU/g: pH>8.5
Method: (§1) A standardized test was conducted to compare the antimicrobial efficacy, residual decay, and effect on solution pH of peracetate and peracetic acid in reducing Salmonella spp. on poultry as a processing method directed to control microbial growth or inactivate microorganisms in food products during processing to lower risk of foodborne pathogens or spoilage microorganisms. The objective of this study was to determine the efficacy of peracetate and peracetic acid treatments for reducing Salmonella spp. on poultry thighs in a treatment bath under conditions simulating pre-chiller and red water main chiller applications. To mimic these applications in a poultry processing facility, target concentrations were determined to be 150 ppm of either peracetate (as PAA equivalents) or peracetic acid in the simulated pre-chiller application and 75 ppm of either peracetate (as PAA equivalents) or peracetic acid in the simulated red water main chiller application. Both applications targeted a pH>8.5 to simulate the intentional alkalinity of chillers in poultry processing facilities.
(§2) The pH, temperature, and residual antimicrobial concentration (measured as either peracetate or peracetic acid) were monitored through the duration of both applications. […]
The inoculum used in this study was prepared from three reference strains of Salmonella: S. Infantis (Reference Strain ID: ATCC 51741), S. Typhimurium (Reference Strain ID: ATCC 13311), and S. Enteritidis (Reference Strain ID: ATCC 13076). […] Colonies from each strain were placed into individual tubes of buffered peptone water (BPW) determined using a spectrophotometer (ThermoFisher Scientific, 1700/0512). […] Post incubation, colonies were counted, and log transformed reported. […]
Prior to inoculation, the average weight of the poultry thighs used in this study was determined to be 150 grams. […]

[1] = Poultry chiller tank: residual decay and odor of antimicrobial baths; format: physicochemical
Method: as §1, with “Both applications targeted a pH>8.5 to simulate the intentional alkalinity of chillers in poultry processing facilities.” left out
as §2
During the pre-chiller and main chiller treatments, the temperature, pH, and antimicrobial concentrations were monitored and recorded every 10 minutes. […] After incubating, colonies were counted, and log transformed.

## CC(=O)OO [peracetic acid]
Salmonella spp.; main chiller treatment (after pre-chiller), target 75 ppm, untreated main chiller control 4.13
  Recovered average Log10 CFU/g: 3.45 Log10 CFU/g
Salmonella spp.; pre-chiller and main chiller
  difference in antimicrobial effectiveness of peracetic acid and peracetate: No significant difference
Salmonella spp.; pre-chiller treatment, target 150 ppm, untreated 5.46, untreated pre-chiller control 4.76
  Recovered average Log10 CFU/g: 3.65 Log10 CFU/g
[1]; pre-chiller application
  additional antimicrobial required to maintain minimum concentration: 13.0 mL
[1]; red water main chiller application
  additional antimicrobial required to maintain minimum concentration: 26.0 mL
